US10010516B2, “Method for regulating retinal endothelial cell viability” (The University of Tennessee Research Foundation, priority 2012, dated 2018)
Entries after “also recorded” stand apart in the source; their conditions may differ.

Key:
[1] = tested on: p53; test: Immunoblot of phosphorylated and total p53 in RECs; assay type: cell-based, human
[2] = tested on: paxillin; test: Immunoblot of paxillin (Y118) phosphorylation in irradiated RECs; assay type: cell-based, human; settings: irradiated RECs 30 Gy, 24 hours, P<0.05
[3] = tested on: ICAM-1; test: ICAM-1 ELISA / Western blot in RECs treated with melphalan; assay type: cell-based, human; settings: TNF-α siRNA or etanercept + melphalan
[4] = tested on: RECs
[5] = tested on: Y79 retinoblastoma cells; test: Cell death ELISA in Y79 retinoblastoma cells; assay type: cell-based, human; settings: melphalan 0.8, 1 or 4 μg/mL tested
[6] = tested on: NF-κB; test: Western blot of phospho-NF-κB / total NF-κB in RECs; assay type: cell-based, human; settings: melphalan 4 μg/mL
Experimental: Western blotting. After appropriate treatments and rinsing with cold phosphate-buffered saline, REC were lysed in the lysis buffer containing the protease and phosphatase inhibitors and scraped into the tubes. Equal amounts of protein from the cell or tissue extracts were separated on the pre-cast tris-glycine gel (Invitrogen, Carlsbad, Calif.), blotted onto a nitrocellulose membrane. After blocking in TBST (10 mM Tris-HCl buffer, pH 8.0, 150 mM NaCl, 0.1% Tween 20) and 5% (w/v) BSA, the membrane was treated with NF-κB, Phospho-NF-κB p38^MAPK, Phospho-p38^MAPK antibodies (1:500) followed by incubation with horseradish peroxidase labeled secondary antibodies. The antigen-antibody complexes were detected using chemilluminescence reagent kit (Thermo Scientific).
Transfections. REC were transfected with ICAM-1 siRNA, TNF-α siRNA, or NF-κB siRNA at a final concentration of 20 nM using Lipofectamine™ RNAiMAX Transfection Reagent according to the manufacturer's instructions. After transfection, cells were starved in MVGS-free Medium 131 for 24 hours and used as required.

[7] = tested on: RECs; settings: melphalan 4 μg/mL; cited from earlier work

Compound: Oc1ccc(-c2nc(-c3ccncc3)c(-c3ccc(F)cc3)[nH]2)cc1 [SB202190]
- effect on RITA-induced p53 accumulation ([1]; concomitant treatment with RITA, P>0.05): did not significantly alter
- phosphorylation of paxillin at Y118 [2]: significantly reduced

Compound: OCc1ccc(-c2ccc(-c3ccc(CO)s3)o2)s1 [RITA]
- p53 accumulation ([1]; RITA 10 μM for four hours vs untreated RECs, P<0.05): significantly enhanced

Compound: etanercept
- melphalan-induced ICAM-1 levels with TNF-α inhibition [3]: neither TNF-α siRNA nor etanercept could reduce ICAM-1 levels; also recorded: Neither TNFα siRNA nor etanercept reduced ICAM-1 levels
- REC apoptosis after melphalan treatment (etanercept) ([4]; etanercept + melphalan): did not reach statistical significance

Compound: N[C@@H](Cc1ccc(N(CCCl)CCCl)cc1)C(=O)O [melphalan]
- apoptosis of Y79 retinoblastoma cells [5]: 4 μg/mL produced maximal apoptosis and best induces apoptosis at 4 μg/mL
- induction of NF-κB phosphorylation [6]: time-dependent
- time of maximum increase in NF-κB Ser536 phosphorylation [6]: 30 min
- DNA fragmentation in RECs ([4]; melphalan 4 μg/mL, 24 hours): did increase DNA fragmentation
- increase in REC death [7]: greater than 6 fold
